US20030175254A1, “Method of obtaining purified enterochromaffin cells and methods of using same” (priority 2001, published 2003)

Test system: Intestinal EC Cells
Test: Serotonin release from cultured rat intestinal (ileal) EC cell fractions, serotonin EIA
Format: cell-based
Details: 60 minutes, 100,000 cells cultured overnight
Protocol: Male Sprague-Dawley rats (n=5 per preparation) were euthanized and the ileum was completely removed and divided into 2-3 pieces. Following end-ligation, these pieces of intestine were everted and filled with an enzyme mix of Pronase E (0.7 mg/mL), and collagenase (0.25 mg/ml). Cells were separated from the muscularis by alternative switching between a calcium containing Respiration medium and a 2 mM EDTA-containing digestive medium (with shaking). A total of 1-2×10^8 cells were obtained from each preparation. Five fractions of cells (F1-F5) were separated by counterflow-elutriation using flow rates of 25 ml/min at 2,500 rpm. Cells (100,000) were cultured overnight in Dulbecco's modified Eagles medium (DMEM)-F12 medium supplemented with 2 mg/ml bovine serum albumin, 5% fetal bovine serum, 5 mg/l gentamicin, 5 mg/l insulin, 5 mg/l transferring, 5 μg/l sodium selenite, and 1 nM hydrocortisone). After removal of the medium, fresh culture medium containing agonists (PACAP, galanin, forskolin, each at 10 nM) was added to the cells for 60 minutes. This medium was removed and the serotonin measured using an serotonin EIA kit and expressed as ng serotonin/100,000 cells/60 min.

Row | Compound | serotonin release, fold versus controls (agonist 10 nM, positive control, p<0.05) | serotonin release versus controls (10^-8 M, negatively regulated serotonin release)
1 | C=C[C@@]1(C)CC(=O)[C@]2(O)[C@@]3(C)[C@@H](O)CCC(C)(C)[C@@H]3[C@H](O)[C@H](OC(C)=O)[C@@]2(C)O1 [Forskolin] | 2.1±0.14 fold | –
2 | pituitary adenylate cyclase stimulating peptide [PACAP] | – | 0.88±0.06
